Consider four molecules from ChEMBL document CHEMBL1147595, “Design and synthesis of photoactivatable aryl diketo acid-containing HIV-1 integrase inhibitors as potential affinity probes” (Bioorg Med Chem Lett, 2004).

Test [1] concerns the target T1, Human immunodeficiency virus type 1 integrase (Human immunodeficiency virus 1, UniProt Q7ZJM1). The test can be described thus: Inhibition of Integrase (strand transfer) as measured in an in vitro assay.
The target in test [2] is T1, Human immunodeficiency virus type 1 integrase. Description: Inhibition of Integrase (3'-processing) as measured in an in vitro assay.
Test [3] shares this target. The test can be described thus: Inhibition of integrase catalyzed strand transfer (ST) as measured in an in vitro assay.
Test [4] shares this target. The test can be described thus: Inhibition of Integrase catalyzed strand transfer (ST) as measured in an in vitro assay.

Several values for one entry are separate records, joined by “and”; a condition that tells them apart may be missing. Identical values can stand only once.

T1 sequence (Q7ZJM1 whole entry): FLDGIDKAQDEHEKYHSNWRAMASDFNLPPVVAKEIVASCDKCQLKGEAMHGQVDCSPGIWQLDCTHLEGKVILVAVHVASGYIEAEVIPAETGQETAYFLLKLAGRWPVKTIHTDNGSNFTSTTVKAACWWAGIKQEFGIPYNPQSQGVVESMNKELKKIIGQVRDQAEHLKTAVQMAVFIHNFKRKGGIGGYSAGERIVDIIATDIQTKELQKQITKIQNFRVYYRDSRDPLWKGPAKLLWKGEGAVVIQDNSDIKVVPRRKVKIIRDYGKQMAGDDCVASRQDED

`O=C(O)C(=O)CC(=O)c1cccc(Cc2ccccc2)c1` registered an IC50 in test [1] of under 0.1 µM.
Take `O=C(O)C(=O)CC(=O)c1cccc(C(=O)c2ccccc2)c1`: the half-inhibitory concentration (IC50) was over 100 µM in test [2], 2.7 µM in test [3] and 2.1 µM in test [4].
On to `[N-]=[N+]=Nc1cccc(C(=O)CC(=O)C(=O)O)c1`, for which the IC50 in test [2] was over 100 µM; in test [4], 5.3 µM and 5.2 µM.
As to `O=C(O)C(=O)CC(=O)c1cccc(OCc2ccc(C(=O)c3ccccc3)cc2)c1`, the half-maximal inhibitory concentration (IC50) was over 100 µM in test [2]; 19 µM and 29 µM in test [4].
